Data as given in US20100239500A1, “SUBSTITUTED TRIAZINE COMPOUNDS FOR NERVE REGENERATION” (priority 2007, published 2010).

Key:
[1] = system: cerebellar granule neurons (CGNs); test: High-content screen and dose-response of CGN neurite growth on PDL/myelin; format: cell-based; conditions: library compounds at 5 μM shown
Description: FIG. 2 is data from a high-content screen of neurite growth on […] (PDL)/myelin. The data for 312 compounds are summarized for total neurite growth normalized to the PDL control. The first three bars show PDL (blue), PDL/myelin (red), and PDL/myelin/dbcAMP (green). […] Straight lines drawn across data represent growth levels with dbcAMP, PDL, myelin, and 50% of the myelin level. The majority of compounds had little or no effect at the concentrations tested (5 μM is shown). […] These four compounds are subsequently referred to as lead compounds.
CGNs were cultured on PDL (control) or on myelin in the presence of the 4 hit compounds at concentrations (in nM) shown. The Cellomics Kinetic Scan Reader (an automated microscope) was used to evaluate average neurite length per neuron in each condition. Growth on myelin in the absence of compounds was set at 100% (origin of y-axis). The black horizontal line represents growth on the control (PDL) substrate; thus growth at or above this line represents complete reversal of the myelin inhibition. Each compound completely reversed growth inhibition by the myelin.
The triazine compounds were added to cultures of primary cerebellar granule neurons (CGNs) to test their ability to promote neurite growth on an inhibitory substrate (PDL/central nervous system myelin). […] The compounds can promote growth on other inhibitory substrates as well. […]

[2] = system: cAMP levels in CGNs; test: cAMP levels in CGNs; format: cell-based; conditions: two hours, PDL or PDL/myelin, forskolin at concentrations indicated in chart
Description: CGNs were cultured for two hours on PDL or on PDL/myelin in the absence or presence of the four lead compounds at […] (F) at the concentrations indicated in the chart. Forskolin increased neuronal cAMP levels by 100-250-fold, while the lead compounds produced no significant increases.

[3] = system: CGNs; test: Neurite growth of CGNs on permissive substrates (PDL, laminin); format: cell-based; conditions: CGNs on PDL or laminin (LN)
Description: CGNs were cultured on PDL or laminin (LN) substrates in the absence or presence of one of the four lead compounds, or on LN in the presence of Gö6976. Neurons grew neurites on PDL, and grew longer neurites on LN.
(§1) The triazine compounds were added to cultures of primary cerebellar granule neurons (CGNs) to test their ability to promote neurite growth on an inhibitory substrate (PDL/central nervous system myelin). […] The compounds can promote growth on other inhibitory substrates as well. When a mixture of inhibitory chondroitin sulfate proteoglycans (CSPGs) on PDL was used as a substrate, neurite growth of CGNs was increased by each compound, as shown in FIG. 3. The compounds evidently act by overcoming inhibitory signals.

[4] = system: E15 rat spinal neurons; test: Growth of spinal neurons on CSPG substrates; format: cell-based; conditions: two days
Description: E15 rat spinal neurons were cultured on LN, or on LN and CSPGs (LN/CSPG) for two days. They were stained for nuclei (blue) and neuronal beta-tubulin (green).

[5] = system: cerebellar granule neurons (CGNs); test: Neurite growth of CGNs on CSPG substrates; format: cell-based; conditions: laminin/CSPG substrate
Description: as §1

[6] = system: cPKC; test: In vitro PKC assay; format: biochemical; conditions: preincubated directly with the enzyme; lead compounds at concentrations optimally effective on cells

Molecule: CCCC(=O)Nc1ncnc2c1ncn2[C@@H]1O[C@@H]2COP(=O)(O)O[C@H]2[C@H]1OC(=O)CCC [dbcAMP]
- total neurite growth normalized to the PDL control [1]: inhibition is overcome

Molecule: C=C[C@@]1(C)CC(=O)[C@]2(O)[C@@]3(C)[C@@H](O)CCC(C)(C)[C@@H]3[C@H](O)[C@H](OC(C)=O)[C@@]2(C)O1 [Forskolin, forskolin]
- increase of neuronal cAMP levels [2]: 100-250 fold

Molecule: Cn1c2ccccc2c2c3c(c4c5ccccc5n(CCC#N)c4c21)CNC3=O [Go6976]
- neurite growth on permissive substrates [3]: significantly increased growth on LN
- growth of spinal neurons on LN/CSPG [4]: somewhat restored
- neurite growth on LN/CSPG mixture [5]: largely reversed

Molecule: Calphostin C
- effect on cPKC activity [6]: inhibits cPKC
